According to patent publication US4147861A, “1N-(α-Hydroxy-ω-aminoalkanoyl)- 6'N-methyl-3',4'-dideoxykanamycin B and the production thereof” (Zaidan Hojin Biseibutsu Kagaku Kenkyu Kai, priority 1977, dated 1979):
In brackets after ≈: the same amount, converted by molar mass.

Legend:
Staphylococcus aureus = assay: Minimum inhibitory concentration, serial dilution method on nutrient agar; type: cell-based; settings: 37° C., 18 hours, read-out: Minimum Inhibitory Concentrations
[1] = tested on: Staphylococcus aureus FDA 209P; assay: as above; type: cell-based; settings: FDA209P, 37° C., 18 hours, read-out: Minimum Inhibitory Concentrations
[2] = tested on: Staphylococcus aureus Terajima; assay: as above; type: cell-based; settings: 37° C., 18 hours, read-out: Minimum Inhibitory Concentrations
Sarcina lutea PCI 1001 = assay: as above; type: cell-based; settings: Micrococcus luteus, PCI1001, 18 h, read-out: Minimum Inhibitory Concentrations
Bacillus anthracis = assay: microbe, parasite or virus in culture; type: cell-based; settings: 18 h, read-out: Minimum Inhibitory Concentrations
[3] = tested on: Bacillus subtilis PCI 219; assay: Minimum inhibitory concentration, serial dilution method on nutrient agar; type: cell-based; settings: PCI219, 37° C., 18 hours, read-out: Minimum Inhibitory Concentrations
[4] = tested on: Bacillus subtilis NRRL B-558; assay: as above; type: cell-based; settings: NRRLB558, 37° C., 18 hours, read-out: Minimum Inhibitory Concentrations
[5] = tested on: Bacillus cereus ATCC 10702; assay: as above; type: cell-based; settings: ATCC10702; Bacillus cereus ATCC 10702; 37° C., 18 hours; read-out: Minimum Inhibitory Concentrations
[6] = tested on: Corynebacterium bovis 1810; assay: as above; type: cell-based; settings: Corynebacterium bovis 1810; 37° C., 18 hours; read-out: Minimum Inhibitory Concentrations
[7] = tested on: Mycobacterium smegmatis ATCC 607; assay: as above; type: cell-based; settings: Mycolicibacterium smegmatis, ATCC607, 37° C., 18 hours, read-out: Minimum Inhibitory Concentrations
[8] = tested on: Shigella dysenteriae JS 11910; assay: as above; type: cell-based; settings: JS11910, 18 h, read-out: Minimum Inhibitory Concentrations
Salmonella typhosa T-63 = assay: as above; type: cell-based; settings: Salmonella enterica, 18 h, read-out: Minimum Inhibitory Concentrations
[9] = tested on: Salmonella enteritidis 1891; assay: as above; type: cell-based; settings: Salmonella enterica; Salmonella enteritidis 1891; 37° C., 18 hours; read-out: Minimum Inhibitory Concentrations
Proteus vulgaris OX 19 = assay: as above; type: cell-based; settings: OX19; Proteus vulgaris OX 19; 37° C., 18 hours; read-out: Minimum Inhibitory Concentrations
[10] = tested on: Klebsiella pneumoniae PCT 602; assay: as above; type: cell-based; settings: PCT602; Klebsiella pneumoniae PCT 602; 37° C., 18 hours; read-out: Minimum Inhibitory Concentrations
Escherichia coli NIHJ = assay: as above; type: cell-based; settings: Escherichia coli NIHJ; 37° C., 18 hours; read-out: Minimum Inhibitory Concentrations
Escherichia coli K-12 = assay: as above; type: cell-based; settings: K12; Escherichia coli K-12; 37° C., 18 hours; read-out: Minimum Inhibitory Concentrations
Escherichia coli K-12 R5 = assay: as above; type: cell-based; settings: K12R5, 18 h, read-out: Minimum Inhibitory Concentrations
[11] = tested on: Escherichia coli K-12 ML 1629; assay: as above; type: cell-based; settings: K12ML1629; Escherichia coli K-12 ML 1629; 37° C., 18 hours; read-out: Minimum Inhibitory Concentrations
[12] = tested on: Escherichia coli K-12 ML 1410; assay: as above; type: cell-based; settings: K12ML1410; Escherichia coli K-12 ML 1410; 37° C., 18 hours; read-out: Minimum Inhibitory Concentrations
[13] = tested on: Escherichia coli K-12 ML 1410 R81; assay: as above; type: cell-based; settings: 18 h, read-out: Minimum Inhibitory Concentrations
[14] = tested on: Escherichia coli LA290 R55; assay: as above; type: cell-based; settings: LA290R55, 18 h, read-out: Minimum Inhibitory Concentrations
[15] = tested on: Escherichia coli LA290 R56; assay: as above; type: cell-based; settings: LA290R56, 18 h, read-out: Minimum Inhibitory Concentrations
[16] = tested on: Escherichia coli LA290 R64; assay: as above; type: cell-based; settings: LA290R64, 18 h, read-out: Minimum Inhibitory Concentrations
Escherichia coli W677 = assay: as above; type: cell-based; settings: Escherichia coli W677; 37° C., 18 hours; read-out: Minimum Inhibitory Concentrations
[17] = tested on: Escherichia coli JR66/W677; assay: as above; type: cell-based; settings: Escherichia coli, JR66/W677, 18 h, read-out: Minimum Inhibitory Concentrations
[18] = tested on: Escherichia coli K-12 ML 1630; assay: as above; type: cell-based; settings: K12ML1630, 37° C., 18 hours, read-out: Minimum Inhibitory Concentrations
Experimental: (§1) The minimum inhibitory concentrations (mcg./ml.) of 1N-(DL-isoseryl)-6'N-methyl-3',4'-dideoxykanamycin B (abbreviated as DL-IS-MDKB); 1N-(L-isoseryl)-6'N-methyl-3',4'-dideoxykanamycin B (abbreviated as L-IS-MDKB); 1N-(L-4-amino-[…])-6'N-methyl-3',4'-dideoxykanamycin B (abbreviated as AHB-MDKB); and 1N-(L-5-amino-2-hydroxyvaleryl)-6'N-methyl-3',4'-dideoxykanamycin B (abbreviated as AHV-MDBK) against various organisms were determined according to serial dilution method using nutrient agar medium at 37° C., the readings being made after 18 hours incubation. For the comparison purpose, the minimum inhibitory concentrations (mcg./ml.) of 1 N-(L-4-amino-2-hydroxybutyryl)-kanamycin A (abbreviated as AHB-KMA) and 1N-([…])-kanamycin B (abbreviated as AHB-KMB) which are known from U.S. Pat. No. 3,781,268 were also determined by the same manner as stated above.

[19] = tested on: Klebsiella pneumoniae 22 No. 3038; assay: as above; type: cell-based; settings: 37° C., 18 hours, read-out: Minimum Inhibitory Concentrations
Experimental: as §1

[20] = tested on: Pseudomonas aeruginosa A3; assay: as above; type: cell-based; settings: 37° C., 18 hours, read-out: Minimum Inhibitory Concentrations
Experimental: as §1

[21] = tested on: Shigella flexneri 4b JS 11811; assay: as above; type: cell-based; settings: 4BJS11811, 37° C., 18 hours, read-out: Minimum Inhibitory Concentrations
Experimental: as §1

Shigella sonnei JS 11746 = assay: as above; type: cell-based; settings: JS11746, 37° C., 18 hours, read-out: Minimum Inhibitory Concentrations
Experimental: as §1

[22] = tested on: Pseudomonas aeruginosa No. 12; assay: as above; type: cell-based; settings: Pseudomonas aeruginosa, NO.12, 18 h, read-out: Minimum Inhibitory Concentrations
[23] = tested on: Pseudomonas aeruginosa TI-13; assay: as above; type: cell-based; settings: Pseudomonas aeruginosa, TI13, 18 h, read-out: Minimum Inhibitory Concentrations
[24] = tested on: Pseudomonas aeruginosa GN315; assay: as above; type: cell-based; settings: Pseudomonas aeruginosa GN315; 37° C., 18 hours; read-out: Minimum Inhibitory Concentrations
[25] = tested on: Pseudomonas aeruginosa 99; assay: as above; type: cell-based; settings: 37° C., 18 hours, read-out: Minimum Inhibitory Concentrations
[26] = tested on: kanamycin-resistant bacteria; settings: prior art statement; cited from earlier work

With NCC[C@H](O)C(=O)N[C@@H]1C[C@H](N)[C@@H](O[C@H]2O[C@H](CN)[C@@H](O)[C@H](O)[C@H]2O)[C@H](O)[C@H]1O[C@H]1O[C@H](CO)[C@@H](O)[C@H](N)[C@H]1O [AHB-KMA, 1 N-(L-4-amino-2-hydroxybutyryl)-kanamycin A, reference compound] the MIC (Staphylococcus aureus) was < 0.2 µg/mL, the MIC [1] was 0.39 µg/mL (≈ 0.666 µM) and the MIC [2] was < 0.2 µg/mL. For the same compound, the MIC (Sarcina lutea PCI 1001) was 3.13 µg/mL (≈ 5.34 µM), the MIC (Bacillus anthracis) was < 0.2 µg/mL and the MIC [3] was < 0.2 µg/mL. The MIC [4] was < 0.2 µg/mL, the MIC [5] was 0.78 µg/mL (≈ 1.33 µM) and the MIC [6] was 0.78 µg/mL (≈ 1.33 µM). The MIC [7] was < 0.2 µg/mL, the MIC [8] was 3.13 µg/mL (≈ 5.34 µM) and the MIC (Salmonella typhosa T-63) was 0.39 µg/mL (≈ 0.666 µM). It also gave an MIC [9] of 0.78 µg/mL (≈ 1.33 µM), an MIC (Proteus vulgaris OX 19) of 0.78 µg/mL (≈ 1.33 µM) and an MIC [10] of 0.39 µg/mL (≈ 0.666 µM). The MIC (Escherichia coli NIHJ) was 0.78 µg/mL (≈ 1.33 µM), the MIC (Escherichia coli K-12) was 0.78 µg/mL (≈ 1.33 µM) and the MIC (Escherichia coli K-12 R5) was 0.39 µg/mL (≈ 0.666 µM). For the same compound, the MIC [11] was 0.78 µg/mL (≈ 1.33 µM), the MIC [12] was 0.78 µg/mL (≈ 1.33 µM) and the MIC [13] was 1.56 µg/mL (≈ 2.66 µM). The MIC [14] was 0.78 µg/mL (≈ 1.33 µM), the MIC [15] was 0.39 µg/mL (≈ 0.666 µM) and the MIC [16] was 0.39 µg/mL (≈ 0.666 µM). The MIC (Escherichia coli W677) was < 0.2 µg/mL, the MIC [17] was 1.56 µg/mL (≈ 2.66 µM) and the MIC [18] was 0.78 µg/mL (≈ 1.33 µM). For the same compound, the MIC [19] was 1.56 µg/mL (≈ 2.66 µM), the MIC [20] was 3.13 µg/mL (≈ 5.34 µM) and the MIC [21] was 3.13 µg/mL (≈ 5.34 µM). For the same compound, the MIC (Shigella sonnei JS 11746) was 1.56 µg/mL (≈ 2.66 µM), the MIC [22] was 3.13 µg/mL (≈ 5.34 µM) and the MIC [23] was 3.13 µg/mL (≈ 5.34 µM). For the same compound, the MIC [24] was 100 µg/mL (≈ 171 µM), the MIC [25] was 6.25 µg/mL (≈ 10.7 µM) and the “activity against kanamycin-resistant bacteria” value [26] was “active against a large number of kanamycin-resistant bacteria”.
